Values after ≈ are worked out from the molar mass of the structure shown.

The record followed here is patent publication US20220249441A1, “Homodimeric Tobramycin Adjuvant Repurposes Novobiocin as an Effective Antibacterial Agent Against Gram-Negative Bacteria” (priority 2019, published 2022).

The subject of assay [1] is P. aeruginosa. Put plainly: Checkerboard assay (antibiotic + adjuvant combination MIC). Format: cell-based, Pseudomonas aeruginosa. To be noted: for MIC Alone / potentiation of novobiocin: P. aeruginosa PAO1; for MIC Alone: β-lactam antibiotic alone. How it is done: (§1) Antimicrobial Susceptibility Assay. The in vitro antimicrobial activity of all compounds/antibiotics against a panel of bacteria was evaluated by microbroth dilution method in accordance with the Clinical and Laboratory Standards Institute (CLSI) guidelines (using ATCC strains as quality control strains) (54). Overnight grown bacterial cultures were diluted in saline to achieve a 0.5 McFarland turbidity, followed by 1:50 dilution in Mueller-Hinton broth (MHB) for inoculation to a final concentration of approximately 5×10^5 CFU/mL. […] The lowest concentration that prevented the visible growth of bacteria was defined as the MIC for each antimicrobial agent. The broth with or without bacterial cells was used as positive or negative control, respectively.
Checkerboard Assay. Combination studies with different antibiotics were performed in 96-well plates as previously described (19). Briefly, the antibiotic of interest was serially diluted in MHB along the abscissa while the adjuvant (tobramycin homodimer) was serially diluted in MHB along the ordinate. This creates a 10×7 matrices wherein each well consists of a combination of different antibiotic and adjuvant concentrations. Overnight grown bacterial cultures were diluted in saline to achieve a 0.5 McFarland turbidity, followed by 1:50 dilution in Mueller-Hinton broth (MHB) for inoculation to a final concentration of approximately 5×10^5 CFU/mL. […] MIC was recorded as wells with the lowest concentration of drugs with no bacterial growth. The fractional inhibitory concentration (FIC) for each antibiotic was calculated by dividing the MIC of the antibiotic in the presence of adjuvant by the MIC of the antibiotic alone. Similarly, the FIC of adjuvant was calculated by dividing the MIC of the adjuvant in the presence of antibiotic by the MIC of the adjuvant alone. FIC index is the sum of both FICs. FIC indices of ≤0.5 were deemed synergistic; >0.5-4, no interaction; and >4, antagonistic.

The test system of assay [2] is A. baumannii ATCC 17978 and resistant mutants. Put plainly: microbe, parasite or virus in culture. Format: cell-based, Acinetobacter baumannii. To be noted: Acinetobacter baumannii. How it is done:
as §1
Development of Resistance Study. […] Tobramycin and colistin were included as controls. At 24-hour intervals, the cultures were assessed for growth. […] This serial passaging was repeated for 8 days.

Setting [3] is: ATCC17978, 18 h, Mutant C (seven serial passages, sub-MICs novobiocin + 7.1 μM compound 1).
The mark [4] stands for this setting: ATCC17978, Mutant A (seven serial passages, sub-MICs novobiocin).
Setting [5] is: ATCC17978, Mutant B (seven serial passages, sub-MICs colistin).
Where [6] appears, read: ATCC17978, Wild-type A. baumannii ATCC 17978.

Regarding `CCN1CCN(C(=O)N[C@@H](C(=O)N[C@@H]2C(=O)N3[C@@H]2SC(C)(C)[C@@H]3C(=O)O)c2ccccc2)C(=O)C1=O` [Piperacillin, reference compound], the MIC Alone in assay [1] was 8 µg/mL.

Take `C#CCCCCO[C@@H]1[C@@H](O[C@H]2O[C@H](CO)[C@@H](O)[C@H](N)[C@H]2O)[C@H](N)C[C@H](N)[C@H]1O[C@H]1O[C@H](CN)[C@@H](O)C[C@H]1N.O=C(O)C(F)(F)F.O=C(O)C(F)(F)F.O=C(O)C(F)(F)F.O=C(O)C(F)(F)F.O=C(O)C(F)(F)F` [Compound 4, 5-O-(Hexyne)-Tobramycin]: the potentiation of novobiocin entry in assay [1] is reported as “did not potentiate”.

Turning to `CO[C@H]1/C=C/O[C@@]2(C)Oc3c(C)c(O)c4c(O)c(c(/C=N/N5CCN(C)CC5)c(O)c4c3C2=O)NC(=O)/C(C)=C\C=C\[C@H](C)[C@H](O)[C@@H](C)[C@@H](O)[C@@H](C)[C@H](OC(C)=O)[C@@H]1C` [Rifampicin], the MIC in assay [2] (setting [3]) is 2 µg/mL; in assay [2] (setting [4]) it was 2 µg/mL (≈ 2.43 µM); in assay [2] (setting [5]), less than 0.031 µg/mL; in assay [2] (setting [6]), 2 µg/mL (≈ 2.43 µM).

As for `[N-]=[N+]=NCCCCO[C@@H]1[C@@H](O[C@H]2O[C@H](CO)[C@@H](O)[C@H](N)[C@H]2O)[C@H](N)C[C@H](N)[C@H]1O[C@H]1O[C@H](CN)[C@@H](O)C[C@H]1N` [Compound 5, 5-O-(4-Azidobutyl)-Tobramycin], the potentiation of novobiocin result in assay [1] is listed as “did not potentiate”.

Regarding `C[C@H]1[C@H](NC(=O)/C(=N\OC(C)(C)C(=O)O)c2csc(N)n2)C(=O)N1S(=O)(=O)O` [Aztreonam, reference compound], in assay [1], the MIC Alone is 4 µg/mL. Further, the MIC of ATM alone was 32 µg/mL in assay [1] (PA 259-96918); 64 µg/mL in assay [1] (PA 260-97103); 32 µg/mL in assay [1] (PA 262-101856); 32 µg/mL in assay [1] (PA 264-104354); 64 µg/mL in assay [1] (PA 86052); 32 µg/mL in assay [1] (PA 88949). Besides, the MIC of ATM alone in assay [1] (PA 91433) came out at 16 µg/mL; in assay [1] (PA 100036), 16 µg/mL; in assay [1] (PA 101243) it was 32 µg/mL; in assay [1] (PA 101885), 16 µg/mL; in assay [1] (PA 107092) it was 64 µg/mL; in assay [1] (PA 108590) it was 32 µg/mL. For the same molecule, the MIC of ATM alone in assay [1] (PA 109084) turned out to be 64 µg/mL; in assay [1] (PA 114228), 32 µg/mL; in assay [1] (PAO1), 4 µg/mL.

`O=C(N[C@H](CO)[C@H](O)c1ccc([N+](=O)[O-])cc1)C(Cl)Cl` [Chloramphenicol]: the MIC in assay [2] (setting [3]) came to 64 µg/mL; in assay [2] (setting [4]) it was 32 µg/mL (≈ 99 µM); in assay [2] (setting [5]), 8 µg/mL (≈ 24.8 µM); in assay [2] (setting [6]), 64 µg/mL (≈ 198 µM).

As for `CN(C)c1ccc(O)c2c1C[C@H]1C[C@H]3[C@H](N(C)C)C(O)=C(C(N)=O)C(=O)[C@@]3(O)C(O)=C1C2=O` [Minocycline], the MIC in assay [2] (setting [3]) was 0.125 µg/mL; in assay [2] (setting [4]), 0.5 µg/mL (≈ 1.09 µM); in assay [2] (setting [5]), less than 0.031 µg/mL; in assay [2] (setting [6]), 0.125 µg/mL (≈ 0.273 µM).

Regarding `CC(C)(C)OC(=O)NC[C@H]1O[C@H](O[C@H]2[C@H](OCCCCc3cn(CCCCO[C@@H]4[C@@H](O[C@H]5O[C@H](CO)[C@@H](O)[C@H](NC(=O)OC(C)(C)C)[C@H]5O)[C@H](NC(=O)OC(C)(C)C)C[C@H](NC(=O)OC(C)(C)C)[C@H]4O[C@H]4O[C@H](CNC(=O)OC(C)(C)C)[C@@H](O)C[C@H]4NC(=O)OC(C)(C)C)nn3)[C@@H](O[C@H]3O[C@H](CO)[C@@H](O)[C@H](NC(=O)OC(C)(C)C)[C@H]3O)[C@H](NC(=O)OC(C)(C)C)C[C@@H]2NC(=O)OC(C)(C)C)[C@H](NC(=O)OC(C)(C)C)C[C@@H]1O` [Compound 12a], the potentiation of novobiocin entry in assay [1] is listed as “did not potentiate”.

As for `C[C@@H](O)[C@H]1C(=O)N2C(C(=O)O)=C(SCCN=CN)C[C@H]12` [Imipenem, reference compound], in assay [1], the MIC Alone was found to be 4 µg/mL. The MIC of IPM alone in assay [1] (PA 259-96918) is 64 µg/mL; in assay [1] (PA 260-97103) it was 16 µg/mL; in assay [1] (PA 262-101856), 32 µg/mL; in assay [1] (PA 264-104354) it was 16 µg/mL; in assay [1] (PA 86052) it was 32 µg/mL; in assay [1] (PA 88949), 64 µg/mL. Moreover, the MIC of IPM alone in assay [1] (PA 91433) amounted to 8 µg/mL; in assay [1] (PA 100036), 8 µg/mL; in assay [1] (PA 101243), 8 µg/mL; in assay [1] (PA 101885), 4 µg/mL; in assay [1] (PA 107092), 64 µg/mL; in assay [1] (PA 108590), 16 µg/mL. The MIC of IPM alone amounted to 16 µg/mL in assay [1] (PA 109084); 8 µg/mL in assay [1] (PA 114228); 4 µg/mL in assay [1] (PAO1); 4 µg/mL in assay [1] (PAO200 (efflux-deficient)); 4 µg/mL in assay [1] (PAO750 (efflux-deficient)).
